Source: patent US20230219912A1, “HALOGENATED BENZOTHIADIAZINES FOR THE TREATMENT OF CANCER” (BOARD OF REGENTS OF THE UNIVERSITY OF NEBRASKA, priority 2020, published 2023)
“And” between values parts separate entries of the source, which are not always exact repeats. Identical values can stand only once. “Also recorded” adds a separate entry of the source.

Legend:
[1] = system: 22Rv1 prostate cancer cells; assay: MTS cytotoxicity assay in 22Rv1 prostate cancer cells; conditions: for effect on cell viability of prostate cancer cells: 100 μM up to 72 hours
Method in brief: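 Cells seeded at 1×10^5 per well and dosed after 24 h at the indicated concentrations (final DMSO <1%), then incubated 48-72 hours at 37° C, 5% CO2. MTS added for 2-4 hr; absorbance at 490 nm, viability expressed as percentage of controls.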

[2] = system: phosphorylated vascular endothelial growth factor receptor-2 (VEGFR2); assay: Western blot of pVEGFR2 in VEGF-treated HUVEC cells; type: cell-based, human; conditions: 20 μM, VEGF 10 ng/mL, 5 min
Experimental: Cells were treated with test compounds (20 μM) along with VEGF (10 ng/mL) for 5 min. The DMSO was used as a negative control, whereas DMSO+VEGF was used as a positive control. Cells were lysed using RIPA buffer (10 mmol/L Tris-HCl, 1 mmol/L EDTA, 0.5 mmol/L EGTA, 1% Triton X-100, 0.1% sodium deoxycholate, 0.1% SDS and 140 mmol/L NaCl), supplemented with protease and phosphatase inhibitors (Halt Protease and Phosphatase Inhibitor). Cell lysates were centrifuged, and the supernatants were mixed with appropriate amount of 5×SDS loading buffer. Proteins were resolved on polyacrylamide gel and transferred onto nitrocellulose/PVDF membrane, blocked for 1 hour with 10% milk block prepared in 0.1% Tween 20 in 1×PBS (PBST), and treated with pVEGFR2 primary antibody at 4° C. overnight. The membrane was washed thrice with PBST, 5 minutes each, and treated with secondary antibody for 1 hour. The membrane was further washed three times, 5 minutes each, with PBST and developed using chemiluminescence, and the bands were analyzed using densitometry.

[3] = system: MDA-MB-468 triple negative breast cancer cells; assay: MTS cytotoxicity assay in MDA-MB-468 triple negative breast cancer cells; type: cell-based; conditions: 10, 50 and 100 μM for 24, 48 and 72 hours, MTS
Experimental: The assay was performed as follows.
Derivatives were dosed at 10, 50 and 100 μM for 24, 48 and 72 hours and cell viability measured by MTS assay (FIG. 5).

[4] = biological target: T1, Mitochondrial respiratory complex II (Rattus norvegicus, UniProt P21913+Q641Z9+Q6PCT8+Q920L2); assay: Mitochondrial respiratory complex II inhibition assay; type: biochemical
T1 construct: measured spectrophotometrically using isolated rat heart mitochondria; from tissue; host or cells: rat heart mitochondria / sub-mitochondrial particles
T1 sequence (Q920L2 35-656): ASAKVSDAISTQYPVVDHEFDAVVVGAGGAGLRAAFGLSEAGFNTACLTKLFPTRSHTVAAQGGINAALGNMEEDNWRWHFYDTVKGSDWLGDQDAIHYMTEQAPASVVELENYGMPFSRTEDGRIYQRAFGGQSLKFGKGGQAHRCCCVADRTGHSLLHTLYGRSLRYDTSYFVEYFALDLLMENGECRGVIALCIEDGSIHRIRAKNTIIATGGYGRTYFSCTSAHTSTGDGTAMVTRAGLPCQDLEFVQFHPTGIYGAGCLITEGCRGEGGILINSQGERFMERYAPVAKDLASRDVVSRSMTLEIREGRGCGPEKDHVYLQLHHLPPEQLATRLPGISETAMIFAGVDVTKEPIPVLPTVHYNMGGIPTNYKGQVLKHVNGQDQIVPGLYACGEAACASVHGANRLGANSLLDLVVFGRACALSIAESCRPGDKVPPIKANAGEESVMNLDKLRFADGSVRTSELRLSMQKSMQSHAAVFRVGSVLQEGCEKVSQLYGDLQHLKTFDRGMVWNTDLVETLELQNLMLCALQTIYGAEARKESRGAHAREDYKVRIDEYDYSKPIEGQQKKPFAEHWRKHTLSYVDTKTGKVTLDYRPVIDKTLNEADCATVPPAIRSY
T1 sequence (P21913 31-282): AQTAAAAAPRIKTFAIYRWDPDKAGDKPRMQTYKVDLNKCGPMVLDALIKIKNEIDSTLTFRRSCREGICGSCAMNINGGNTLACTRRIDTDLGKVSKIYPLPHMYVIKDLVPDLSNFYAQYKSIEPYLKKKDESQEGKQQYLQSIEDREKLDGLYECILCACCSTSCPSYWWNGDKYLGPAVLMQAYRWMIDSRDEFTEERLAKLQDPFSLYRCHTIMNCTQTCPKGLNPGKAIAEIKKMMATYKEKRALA
T1 sequence (Q641Z9 1-169): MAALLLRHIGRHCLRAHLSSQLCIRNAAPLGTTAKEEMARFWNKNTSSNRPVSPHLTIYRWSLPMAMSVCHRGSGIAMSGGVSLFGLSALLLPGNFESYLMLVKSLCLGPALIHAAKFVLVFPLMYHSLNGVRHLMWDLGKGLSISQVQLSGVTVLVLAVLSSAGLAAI
T1 sequence (Q6PCT8 57-159): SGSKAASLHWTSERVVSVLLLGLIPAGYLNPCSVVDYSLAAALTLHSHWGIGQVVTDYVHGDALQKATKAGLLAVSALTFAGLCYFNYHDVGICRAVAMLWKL
Method in brief: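 Rat heart mitochondria or sub-mitochondrial particles in phosphate buffer pH 7.4 with 40 μM DCPIP, 1 mM KCN, 10 μM rotenone and 50 μM co-enzyme Q2.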

[5] = system: VEGF-induced proliferation of HUVEC cells; assay: VEGF-induced HUVEC proliferation, MTT assay; type: cell-based, human; conditions: Homo sapiens, HUVEC, 48 h, 20 μM compound, VEGF 10 ng/mL, HUVEC, 48 h; relative to VEGF treated cells; mean ± SEM n = 3; read-out: % Inhibition of Proliferation
Method in brief: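 HUVECs starved 24 h in 0.1% BSA/0.1% FBS basal medium, then treated 48 h with VEGF (10 ng/mL) alone or with compounds at 20 μM (DMSO <1%). Proliferation by MTT (2 h, 37° C), formazan dissolved in acidified isopropanol, absorbance at 570 nm.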

[6] = system: breast cancer; conditions: 200-300 mg per day, cited from earlier work
[7] = biological target: DYRK1A (Homo sapiens, UniProt Q13627); conditions: 100 μM; cited from earlier work
[8] = system: MDA-MB-468 TNBC cells; conditions: cited from earlier work
[9] = system: MCF-7 breast cancer cells; conditions: cited from earlier work
[10] = biological target: IRAK1 (Homo sapiens, UniProt P51617); conditions: 100 μM; cited from earlier work
IRAK1, sequence (P51617 whole entry): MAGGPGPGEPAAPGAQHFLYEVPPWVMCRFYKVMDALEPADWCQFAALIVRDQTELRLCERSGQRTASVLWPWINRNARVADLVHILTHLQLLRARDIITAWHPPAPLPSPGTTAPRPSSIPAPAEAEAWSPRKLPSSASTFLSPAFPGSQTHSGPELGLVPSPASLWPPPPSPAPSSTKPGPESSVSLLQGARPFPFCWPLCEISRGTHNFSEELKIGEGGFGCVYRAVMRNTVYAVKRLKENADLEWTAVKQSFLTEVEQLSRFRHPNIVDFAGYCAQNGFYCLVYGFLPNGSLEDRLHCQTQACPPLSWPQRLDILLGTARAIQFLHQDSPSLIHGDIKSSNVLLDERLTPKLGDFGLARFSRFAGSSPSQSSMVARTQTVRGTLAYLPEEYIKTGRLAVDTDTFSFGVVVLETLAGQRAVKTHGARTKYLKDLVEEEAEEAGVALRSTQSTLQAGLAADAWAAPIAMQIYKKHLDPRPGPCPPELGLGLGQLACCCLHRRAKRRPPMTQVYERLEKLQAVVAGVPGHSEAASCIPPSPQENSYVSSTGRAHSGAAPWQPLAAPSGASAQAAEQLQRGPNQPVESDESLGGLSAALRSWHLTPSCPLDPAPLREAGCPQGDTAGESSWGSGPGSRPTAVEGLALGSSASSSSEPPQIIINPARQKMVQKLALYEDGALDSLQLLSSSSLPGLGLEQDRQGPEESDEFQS

[11] = system: hormone-dependent mammary carcinomas; conditions: 300 mg/kg, rats; cited from earlier work

## CC1=Nc2ccc(Cl)cc2S(=O)(=O)N1 [Diazoxide, 7-chloro-3-methyl-2H-1,2,4-benzothiadiazine 1,1-dioxide, reference compound]
[1]
  effect on cell viability of prostate cancer cells: no effect to reduce cell viability
[1]; listed as 9
  effect on cell viability of prostate cancer cells: no effect on cell viability
[1]; Homo sapiens, 22Rv1, 48 h, read-out: reduction of 22Rv1 cell viability
  cytotoxicity at 100 µM: 12%
[2]
  attenuation of pVEGFR2 expression: good activity to suppress pVEGFR2
[3]
  effect on MDA-MB 468 TNBC cell viability: no effect to reduce cell viability; also recorded: little activity to reduce TNBC cell viability
[3]; listed as 9
  effect on MDA-MB 468 TNBC cell viability: no effect on cell viability
[4]; 100 μM, relative to DMSO control
  inhibition of CII: no CII inhibition activity
[4]; 100 μM, relative to DMSO control, read-out: inhibition of CII
  inhibition at 100 µM: 9%
[4]; isolated rat heart mitochondria, mean ±SD of n = 4, read-out: CII IC50
  IC50: 1240 µM and > 1000 µM
[5]
  inhibition at 20 µM: 15 ± 20%
[6]; nine patients
  response rate: 33%
[6]
  duration of stable disease: 4-8 months
[7]
  inhibition of DYRK1A: 7%
[8]
  IC50: 0.87 µM
[9]
  IC50: 130 µM
[10]
  inhibition of IRAK1: 9%
[11]
  adverse effect: mild reversible diabetes
  inhibition of tumor growth: 90%
